Three compounds from patent US5677318A, “Diphenyl-1,2-3-thiadiazoles as anti-inflammatory agents” (Merck Frosst Canada, Inc., priority 1996, dated 1997) can be followed below.

The target of one assay is T1, COX-1 (Homo sapiens, UniProt P23219).
T1 construct: platelets in whole blood contain a large amount of the COX-1 enzyme; endogenous in cells; host or cells: platelets in fresh human whole blood
The assay can be described thus: Human whole blood assay, COX-1 (clotting-induced TxB2 production). It is filed as cell-based. The settings on record: 1 hour at 37° C. The protocol:
(§1) As well, platelets in whole blood contain a large amount of the COX-1 enzyme. Immediately following blood clotting, platelets are activated through a thrombin-mediated mechanism. This reaction results in the production of thromboxane B2 (TxB2) via activation of COX-1.
Aliquots of 500 μL were immediately transferred to siliconized microcentrifuge tubes preloaded with 2 μL of either DMSO or a test compound at final concentrations varying from 10 nM to 30 μM.
(§2) In the assay, inhibition is determined by measuring the amount of prostaglandin E2 (PGE2) synthesized in the presence of arachidonic acid, COX-1 or COX-2 and a putative inhibitor.

For the next assay, the system named is rat paw edema. Put plainly: Rat paw edema assay (carrageenan). It is filed as in vivo, Male Sprague-Dawley rats. The settings on record: po, 1 hr before subplantar carrageenan, paw volume at 3 hr, read-out: ED50 (edema inhibition in rat paw). The protocol:
Male Sprague-Dawley rats (150-200 g) were fasted overnight and were given, po, either vehicle (1% methocel or 5% Tween 80), or a test compound. One hr later, a line was drawn using a permanent marker at the level above the ankle in one hind paw to define the area of the paw to be monitored. The paw volume (V0) was measured using a plethysmometer (Ugo-Basile, Italy) based on the principle of water displacement. The animals were then injected subplantarly with 50 μl of 1% carrageenan solution in saline (FMC Corp, Maine) into the paw using an insulin syringe with a 25-gauge needle (i.e., 500 μg carrageenan per paw). Three hr later, the paw volume (V3) was measured and the increases in paw volume (V3 -V0) were calculated. The animals were sacrificed by CO2 asphyxiation and the absence or presence of stomach lesions scored. Data were compared with the vehicle-control values and percent inhibition calculated. ED50 values were used for comparison. All treatment groups were coded to eliminate observer bias.

Another assay concerns the target T2, COX-2 (Homo sapiens, UniProt P35354).
T2 construct: incubation of human whole blood with LPS which induces COX-2; endogenous in cells; host or cells: LPS-stimulated fresh human whole blood (blood cells not specified)
T2 sequence (P35354 18-604): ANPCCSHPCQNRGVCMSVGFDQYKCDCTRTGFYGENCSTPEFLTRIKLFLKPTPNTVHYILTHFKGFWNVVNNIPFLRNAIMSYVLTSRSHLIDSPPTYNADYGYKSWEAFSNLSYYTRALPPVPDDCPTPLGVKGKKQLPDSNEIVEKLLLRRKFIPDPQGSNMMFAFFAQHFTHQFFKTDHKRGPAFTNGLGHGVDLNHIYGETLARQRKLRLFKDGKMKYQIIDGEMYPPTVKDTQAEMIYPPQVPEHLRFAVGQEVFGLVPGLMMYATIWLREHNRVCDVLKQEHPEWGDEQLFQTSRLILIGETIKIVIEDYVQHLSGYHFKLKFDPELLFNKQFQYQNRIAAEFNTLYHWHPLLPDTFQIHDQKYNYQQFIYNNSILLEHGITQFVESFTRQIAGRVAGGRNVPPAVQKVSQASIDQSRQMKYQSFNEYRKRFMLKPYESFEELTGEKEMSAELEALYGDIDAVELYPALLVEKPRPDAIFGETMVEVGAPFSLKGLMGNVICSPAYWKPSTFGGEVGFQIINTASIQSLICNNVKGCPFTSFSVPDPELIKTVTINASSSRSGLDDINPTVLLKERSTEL
Put plainly: Human whole blood assay, COX-2 (LPS-induced PGE2 production). It is filed as cell-based. The note with it: 24 hours at 37° C.
Description: as §1
Fresh blood was collected in heparinized tubes by venipuncture from both male and female volunteers. The subjects had no apparent inflammatory conditions and had not taken any NSAIDs for at least 7 days prior to blood collection. Plasma was immediately obtained from a 2 mL blood aliquot to use as blank (basal levels of PGE2).
as §2

T1 sequence (P23219 24-599): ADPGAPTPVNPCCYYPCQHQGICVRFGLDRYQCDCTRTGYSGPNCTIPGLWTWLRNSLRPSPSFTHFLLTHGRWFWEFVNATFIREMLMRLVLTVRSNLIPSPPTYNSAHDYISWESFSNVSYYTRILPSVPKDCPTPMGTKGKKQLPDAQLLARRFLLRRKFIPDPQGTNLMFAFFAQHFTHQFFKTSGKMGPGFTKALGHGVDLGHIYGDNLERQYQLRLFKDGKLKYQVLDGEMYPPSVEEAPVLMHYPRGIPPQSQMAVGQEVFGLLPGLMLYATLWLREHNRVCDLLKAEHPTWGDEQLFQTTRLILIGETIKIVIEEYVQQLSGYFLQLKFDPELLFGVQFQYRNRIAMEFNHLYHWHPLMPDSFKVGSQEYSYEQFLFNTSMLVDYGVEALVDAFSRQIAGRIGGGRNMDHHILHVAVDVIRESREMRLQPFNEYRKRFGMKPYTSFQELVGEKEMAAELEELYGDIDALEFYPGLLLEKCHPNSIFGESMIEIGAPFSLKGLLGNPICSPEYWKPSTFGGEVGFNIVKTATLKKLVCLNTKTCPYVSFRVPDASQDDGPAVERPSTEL

The term IC50 denotes the concentration that gives 50% inhibition. A lower IC50 goes with higher potency. As usually defined, the ED50 is the dose that gives a 50% effect, or the effect in half of the subjects. Regarding `CS(=O)(=O)c1ccc(-c2snnc2-c2ccc(F)cc2)cc1` [Example 2], the concentration for half-maximal inhibition (IC50) stood at 20 µM on COX-1 and 2.8 µM at COX-2. In addition, in the assay with rat paw edema, the ED50 is 0.5 mg/kg.

In the case of `CS(=O)(=O)c1ccc(-c2snnc2-c2cccc(F)c2)cc1` [Example 3], the IC50 was 63 µM against COX-1 and 1.3 µM at COX-2.

Consider `COc1ccc2c(c1)c(CC(=O)O)c(C)n2C(=O)c1ccc(Cl)cc1` [Indomethacin, indomethacin, reference compound], for which, in the assay with rat paw edema, the ED50 came out at 2 mg/kg.
